Laboratory results: the supplement of paper PMC11061612

What was measured:
[1] = test system: SK-GT-4 (Esophageal Adenocarcinoma); experiment: combination Emax (second highest fraction inhibited in the dose matrix, 72 h); higher = more inhibition; extreme values may be limits of the assay
Summary of the method: (§1)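 Cell lines in DMEM/F12 or RPMI with 10% FBS were plated in 1536-well plates, held 24 hours at 37°C, 5% CO2, then given two-drug dose matrices for 72 hours (DMSO typically 0.2%). Viability was read by CellTiter-Glo 2.0 luminescence and scaled as inhibition from 0 (vehicle wells) to 1 (blank wells). Combination Emax is the second-highest inhibition in the matrix; Bliss excess is observed combination effect minus expected EA + EB − EA·EB, EA and EB being single-agent effects.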

[2] = test system: VMRC-RCZ (Kidney Carcinoma); experiment: as above
Summary of the method: as §1

[3] = test system: KU812 (Chronic Myelogenous Leukemia); experiment: as above
Summary of the method: as §1

[4] = test system: COR-L279 (Small Cell Lung Carcinoma); experiment: as above
Summary of the method: as §1

[5] = test system: ST486 (Burkitt's Lymphoma); experiment: as above
Summary of the method: as §1

[6] = test system: CW-2 (Colorectal Carcinoma); experiment: as above
Summary of the method: as §1

[7] = test system: NCI-H526 (Small Cell Lung Carcinoma); experiment: as above
Summary of the method: as §1

NCI-H2731 (Mesothelioma) = experiment: as above
Summary of the method: as §1

[8] = test system: MN-60 (B-Lymphoblastic Leukemia); experiment: as above
Summary of the method: as §1

M059J (Glioblastoma) = experiment: as above
Summary of the method: as §1

[9] = test system: NCI-H3122 (Lung Adenocarcinoma); experiment: as above
Summary of the method: as §1

[10] = test system: NCCIT (Other Solid Carcinomas); experiment: as above
Summary of the method: as §1

SJSA-1 (Osteosarcoma) = experiment: as above
Summary of the method: as §1

[11] = test system: NCI-H929 (Plasma Cell Myeloma); experiment: as above
Summary of the method: as §1

[12] = test system: MOG-G-CCM (Low Grade Glioma); experiment: as above
Summary of the method: as §1

[13] = test system: KP-3 (Pancreatic Carcinoma); experiment: as above
Summary of the method: as §1

[14] = test system: DMS-114 (Small Cell Lung Carcinoma); experiment: as above
Summary of the method: as §1

[15] = test system: NCI-H520 (Squamous Cell Lung Carcinoma); experiment: as above
Summary of the method: as §1

[16] = test system: KYSE-270 (Esophageal Squamous Cell Carcinoma); experiment: as above
Summary of the method: as §1

[17] = test system: DMS-114 (Small Cell Lung Carcinoma); experiment: Bliss excess, mean over the matrix (fraction); higher = more synergy
Summary of the method: as §1
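Wherever Bliss excess, mean over the matrix is given: after 72 h of two-drug dosing.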

Compound	combination Emax [1]	combination Emax [2]	combination Emax [3]	combination Emax [4]	combination Emax [5]	combination Emax [6]	combination Emax [7]	combination Emax (NCI-H2731 (Mesothelioma))	combination Emax [8]	combination Emax (M059J (Glioblastoma))	combination Emax [9]	combination Emax [10]	combination Emax (SJSA-1 (Osteosarcoma))	combination Emax [11]	combination Emax [12]	combination Emax [13]	combination Emax [14]	combination Emax [15]	combination Emax [16]	Bliss excess [17]
C[C@@H](Oc1cc(-c2cnn(C3CCNCC3)c2)cnc1N)c1c(Cl)ccc(F)c1Cl [Crizotinib] + CC1=C(C(=CC=C1)Cl)NC(=O)C2=CN=C(S2)NC3=CC(=NC(=N3)C)N4CCN(CC4)CCO [Dasatinib] (first compound max 10 µM, 7x7, partner max 2 µM)	0.812	0.846	1	0.839	0.95	0.306	0.452	0.888	0.494	0.829	0.881	0.342	0.885	0.999	0.921	0.127	0.591	0.659	0.792	-0.0562
CN(CCO)CC[C@H](CSc1ccccc1)Nc1ccc(S(=O)(=O)NC(=O)c2ccc(N3CCC([C@@H](O)c4ccccc4-c4ccc(Cl)cc4)CC3)cc2)cc1S(=O)(=O)C(F)(F)F [AZD4320] + CC(=O)O[C@H]1C(=O)[C@@]2(C)[C@H]([C@H](OC(=O)c3ccccc3)[C@]3(O)C[C@H](OC(=O)[C@H](O)[C@@H](NC(=O)c4ccccc4)c4ccccc4)C(C)=C1C3(C)C)[C@]1(OC(C)=O)CO[C@@H]1C[C@@H]2O [Paclitaxel] (first compound max 1 µM, 7x7, partner max 3 µM)	0.894	0.693	0.943	1	1	0.608	1	0.932	0.546	0.974	0.999	0.989	0.967	0.926	0.996	0.8	0.879	0.944	0.913	0.0486
O=C(c1cc(Cc2n[nH]c(=O)c3ccccc23)ccc1F)N1CCN(C(=O)C2CC2)CC1 [Olaparib] + Cc1c2c(nn1C)CSCc1cc(n(C)n1)CSc1cc(c3ccccc3c1)OCCCc1c(C(=O)O)n(C)c3c-2c(Cl)ccc13 [AZD5991] (first compound max 10 µM, 7x7, partner max 1 µM)	0.0608	0.0573	0.784	0.961	0.558	0.101	0.805	0.0516	0.22	0.254	0.315	0.527	0.0831	1	0.222	0.028	0.55	0.104	0.625	0.0106
N#Cc1cnc(Nc2cc(NC[C@H]3CNCCO3)c(C(F)(F)F)cn2)cn1 [SRA737] + CCc1c2c(nc3ccc(O)cc13)-c1cc3c(c(=O)n1C2)COC(=O)[C@]3(O)CC [SN-38] (first compound max 10 µM, 7x7, partner max 0.3 µM)	0.55	0.579	0.799	1	0.991	0.625	0.993	0.478	0.79	0.908	0.857	0.783	0.664	0.9	0.734	0.273	0.608	0.819	1	-0.0589
C[C@@H](Nc1cc(F)cc(F)c1)c1cc(C(=O)N(C)C)cc2c(=O)cc(N3CCOCC3)oc12 [AZD8186] + CC(=O)c1c(C)c2cnc(Nc3ccc(N4CCNCC4)cn3)nc2n(C2CCCC2)c1=O [Palbociclib] (first compound max 10 µM, 7x7, partner max 10 µM)	0.422	0.42	0.582	0.909	0.813	0.374	0.081	0.233	0.502	0.337	0.742	0.542	0.376	0.99	0.519	0.283	0.468	0.688	0.311	0.0178
CN(CCO)CC[C@H](CSc1ccccc1)Nc1ccc(S(=O)(=O)NC(=O)c2ccc(N3CCC([C@@H](O)c4ccccc4-c4ccc(Cl)cc4)CC3)cc2)cc1S(=O)(=O)C(F)(F)F [AZD4320] + CS(=O)(=O)CCNCc1ccc(-c2ccc3ncnc(Nc4ccc(OCc5cccc(F)c5)c(Cl)c4)c3c2)o1 [Lapatinib] (first compound max 1 µM, 7x7, partner max 10 µM)	0.774	0.598	0.973	1	0.96	0.593	0.995	0.858	0.206	0.705	0.281	0.243	0.332	0.589	0.729	0.363	0.36	0.57	0.708	0.0146
Cc1nc(-c2cn3c(n2)-c2ccc(-c4cnn(C(C)(C)C(N)=O)c4)cc2OCC3)n(C(C)C)n1 [Taselisib] + O=C(Nc1ccc2[nH]nc(-c3ccncc3)c2c1)[C@@H]1CCN(CC(=O)N2CCN(c3ccc(-c4ncccn4)cc3)CC2)C1 [SCH772984] (first compound max 10 µM, 7x7, partner max 5 µM)	0.924	0.361	1	0.835	0.654	0.546	0.189	0.553	0.31	0.564	0.978	0.693	0.69	1	0.577	0.354	0.732	0.638	0.822	0.005
Cc1cc2ncnn2cc1Nc1ncc2c(n1)n(C1CCOCC1)c(=O)n2C [AZD7648] + COc1cc([C@@H]2c3cc4c(cc3[C@@H](O[C@@H]3O[C@@H]5CO[C@@H](C)O[C@H]5[C@H](O)[C@H]3O)[C@H]3COC(=O)[C@H]23)OCO4)cc(OC)c1O [Etoposide] (first compound max 10 µM, 7x7, partner max 10 µM)	0.387	0.399	0.792	1	0.933	0.379	0.999	0.542	0.829	0.775	0.67	0.495	0.503	0.988	0.577	0.312	0.658	0.698	0.871	0.0198
N#Cc1cnc(Nc2cc(NC[C@H]3CNCCO3)c(C(F)(F)F)cn2)cn1 [SRA737] + C=CCn1c(=O)c2cnc(Nc3ccc(N4CCN(C)CC4)cc3)nc2n1-c1cccc(C(C)(C)O)n1 [AZD1775] (first compound max 10 µM, partner max 1 µM)	0.565	0.51	0.796	0.834	0.987	0.499	0.753	0.357	0.642	0.659	0.724	0.821	0.535	0.724	0.683	0.294	0.229	0.755	0.991	-0.0231
CS(=O)(=O)CCNCc1ccc(-c2ccc3ncnc(Nc4ccc(OCc5cccc(F)c5)c(Cl)c4)c3c2)o1 [Lapatinib] + NC1(c2ccc(-c3nc4ccn5c(=O)[nH]nc5c4cc3-c3ccccc3)cc2)CCC1 [MK-2206] (first compound max 10 µM, 7x7, partner max 10 µM)	0.7	0.408	0.917	0.978	0.908	0.611	0.864	0.894	0.904	0.756	0.653	0.883	0.897	1	0.523	0.205	0.893	0.922	0.913	0.0721
O=C(c1cc(Cc2n[nH]c(=O)c3ccccc23)ccc1F)N1CCN(C(=O)C2CC2)CC1 [Olaparib] + COc1nnc2ccc(N3CCC(c4ccc(OCCN5CCN(C)C(=O)[C@H]5C)cc4)CC3)nn12 [AZD5153] (first compound max 10 µM, 7x7, partner max 1 µM)	0.426	0.248	0.908	0.953	0.897	0.48	0.926	0.362	0.733	0.718	0.596	0.66	0.539	0.911	0.51	0.125	0.514	0.591	0.493	-0.13
C[C@@H](Oc1cc(-c2cnn(C3CCNCC3)c2)cnc1N)c1c(Cl)ccc(F)c1Cl [Crizotinib] + Cn1cnc2c(F)c(Nc3ccc(Br)cc3Cl)c(C(=O)NOCCO)cc21 [Selumetinib] (first compound max 10 µM, 7x7, partner max 10 µM)	0.461	0.174	1	0.755	0.936	0.37	0.508	0.519	0.38	0.257	0.916	0.4	0.82	1	0.374	0.208	0.527	0.616	0.441	-0.0814
